Results on 23 molecules are retold here after US8785488B2 (Exelixis Patent Company LLC, priority 2009, dated 2014).

In general, EC50 refers to the concentration giving half of the maximal effect.

One test addresses T1, human TGR5 (h-TGR5) (Homo sapiens, UniProt Q8TDU6).
T1 construct: expressed in transfected cells
T1 sequence (Q8TDU6 1-330): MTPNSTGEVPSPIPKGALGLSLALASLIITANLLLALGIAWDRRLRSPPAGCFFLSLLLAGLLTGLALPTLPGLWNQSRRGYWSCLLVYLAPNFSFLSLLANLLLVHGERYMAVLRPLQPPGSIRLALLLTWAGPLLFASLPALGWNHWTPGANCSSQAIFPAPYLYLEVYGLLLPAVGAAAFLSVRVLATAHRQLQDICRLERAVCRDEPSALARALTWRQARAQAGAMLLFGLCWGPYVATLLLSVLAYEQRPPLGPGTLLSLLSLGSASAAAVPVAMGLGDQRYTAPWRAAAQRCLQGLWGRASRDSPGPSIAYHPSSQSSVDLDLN
As to the kind of experiment: TGR5/CRE-Luciferiase Assay (HEK 293 hTGR5/CRE-Luc cells). The format is cell-based. The following applies: h-TGR5 CRE-Luc EC50, Table 1; read-out: CRE-Luc (EC50). The gist of the method: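 HEK293 cells stably carrying hTGR5 and a CRE-luciferase reporter were exposed to serially diluted compounds (diluted in DMEM with 5% DMSO) for 6 h. Cells were then lysed in luciferase buffer, luminescence was read, and EC50 values were derived from dose-response curves.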

Another test addresses T2, h-TGR5 (Homo sapiens, UniProt Q8TDU6).
T2 construct: expressed in transfected cells
T2 sequence (Q8TDU6 1-330): T1 sequence (Q8TDU6 1-330)
As to the kind of experiment: TGR5 cAMP Assay using Cisbio cAMP Dynamic2 htrf kit (hTGR5CRE-luc HEK 293 cells). The test is classed as cell-based. Conditions: h-TGR5 cAMP EC50, Table 1; read-out: cAMP (EC50). The gist of the method: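 […], 4000 hTGR5CRE-luc HEK 293 cells per well, with 0.5 mM IBMX and d2-cAMP, were incubated 30 min at room temperature with compounds in 8-point half-log series, in quadruplicate.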

Molecules are shown by their SMILES.

As to `COc1cc(C(C)(C)c2cnc(SCc3c(F)cc(C(=O)NCS(=O)(=O)O)cc3Cl)n2-c2ccc(F)cc2)ccc1Cl` [({[3-chloro-4-({[5-{1-[4-chloro-3-(methyloxy)phenyl]-1-methylethyl}-1-(4-fluorophenyl)-1H-imidazol-2-yl]thio}methyl)-5-fluorophenyl]carbonyl}amino) methanesulfonic acid], the EC50 on human TGR5 (h-TGR5) and at h-TGR5 was less than 100 nM throughout.

Take `CC(C)(c1ccc(F)c(C#N)c1)c1cnc(SCc2ccc(S(=O)(=O)NC(=O)NN3CCCC3)cc2Cl)n1-c1ccc(F)cc1` [3-chloro-4-[({5-[1-(3-cyano-4-fluorophenyl)-1-methylethyl]-1-(4-fluorophenyl)-1H-imidazol-2-yl}thio)methyl]-N-[(pyrrolidin-1-ylamino)carbonyl]benzenesulfonamide]: the 50% effective concentration (EC50) at human TGR5 (h-TGR5) and at h-TGR5 was 100 to 1000 nM in each case.

Consider `COc1cc(C(C)(C)c2cnc(SCc3c(F)cc(-c4n[nH]c(=O)o4)cc3Cl)n2-c2ccc(F)cc2)ccc1Cl` [5-[3-chloro-4-({[5-{1-[4-chloro-3-(methyloxy)phenyl]-1-methylethyl}-1-(4-fluorophenyl)-1H-imidazol-2-yl]thio}methyl)-5-fluorophenyl]-1,3,4-oxadiazol-2(3H)-one], for which the EC50 on human TGR5 (h-TGR5) and at h-TGR5 was less than 100 nM in each case.

As to `COc1cc(C(C)(C)c2cnc(SCc3ccc(S(=O)(=O)NC(=O)NN4CCOCC4)cc3Cl)n2-c2ccc(F)cc2)ccc1Cl` [3-chloro-4-({[5-{1-[4-chloro-3-(methyloxy)phenyl]-1-methylethyl}-1-(4-fluorophenyl)-1H-imidazol-2-yl]thio}methyl)-N-[(morpholin-4-ylamino)carbonyl]benzenesulfonamide], the EC50 on human TGR5 (h-TGR5) was 100 to 1000 nM; on h-TGR5, less than 100 nM.

In the case of `CC(C)(c1ccc2onc(N)c2c1)c1cnc(SCc2c(F)cc(C(=O)NC(CCCNC(=N)N)C(=O)O)cc2Cl)n1-c1ccc(F)cc1` [N-2-({4-[({5-[1-(3-amino-1,2-benzisoxazol-5-yl)-1-methylethyl]-1-(4-fluorophenyl)-1H-imidazol-2-yl}thio)methyl]-3-chloro-5-fluorophenyl}carbonyl)-D-arginine], the EC50 on human TGR5 (h-TGR5) and at h-TGR5 was less than 100 nM in each case.

As for `COc1cc(C(C)(C)c2cnc(SCc3c(F)cc(OCCNC(=N)N)cc3F)n2-c2ccc(F)cc2)ccc1Cl` [1-(2-{[4-({[5-{1-[4-chloro-3-(methyloxy)phenyl]-1-methylethyl}-1-(4-fluorophenyl)-1H-imidazol-2-yl]thio}methyl)-3,5-difluorophenyl]oxy}ethyl)guanidine], the EC50 at human TGR5 (h-TGR5) and on h-TGR5 was less than 100 nM each time.

In the case of `CC(C)(c1ccc(Cl)c(Cl)c1)c1c(Cl)nc(SCc2c(F)cc(C(=O)O)cc2F)n1-c1ccc(F)cc1` [4-[({4-chloro-5-[1-(3,4-dichlorophenyl)-1-methylethyl]-1-(4-fluorophenyl)-1H-imidazol-2-yl}thio)methyl]-3,5-difluorobenzoic acid], the EC50 on human TGR5 (h-TGR5) and at h-TGR5 was 100 to 1000 nM each time.

As for `COc1cc(-n2c(C(C)(C)c3ccc(S(C)(=O)=O)cc3)cnc2SCc2ccc(Cl)c(-c3nnn[nH]3)c2)ccc1F` [5-(2-chloro-5-{[(1-[4-fluoro-3-(methyloxy)phenyl]-5-{1-methyl-1-[4-(methylsulfonyl)phenyl]ethyl}-1H-imidazol-2-yl)thio]methyl}phenyl)-1H-tetrazole], the EC50 at human TGR5 (h-TGR5) and on h-TGR5 was 100 to 1000 nM throughout.

With `COc1cc(C(C)(C)c2cnc(SCc3c(F)cc(C(=O)NC(CCCNC(=N)N)C(=O)O)cc3Cl)n2-c2ccc(F)cc2)ccc1F` [N-2-{[3-chloro-5-fluoro-4-({[5-{1-[4-fluoro-3-(methyloxy)phenyl]-1-methylethyl}-1-(4-fluorophenyl)-1H-imidazol-2-yl]thio}methyl)phenyl]carbonyl}-D-arginine], the EC50 on human TGR5 (h-TGR5) and at h-TGR5 was less than 100 nM each time.

`Cc1cc(-n2c(C(C)(C)c3ccc(F)c(F)c3)cnc2SCc2ccc(S(=O)(=O)NC(=O)NN3CCCC3)cc2Cl)ccc1F` [3-chloro-4-[({5-[1-(3,4-difluorophcnyl)-1-methylethyl]-1-(4-fluoro-3-methylphenyl)-1H-imidazol-2-yl}thio)methyl]-N-[(pyrrolidin-1-ylamino)carbonyl]benzenesulfonamide]: the EC50 at human TGR5 (h-TGR5) lay in the range of 100 to 1000 nM; on h-TGR5 it was 1000 to 10000 nM.

With `COc1cc(C(C)(C)c2cnc(SCc3cc(S(N)(=O)=O)c(Cl)cc3F)n2-c2ccc(F)cc2)ccc1Cl` [2-chloro-5-({[5-{1-[4-chloro-3-(methyloxy)phenyl]-1-methylethyl}-1-(4-fluorophenyl)-1H-imidazol-2-yl]thio}methyl)-4-fluorobenzenesulfonamide], the EC50 at human TGR5 (h-TGR5) and at h-TGR5 was less than 100 nM throughout.

As for `CC(C)(c1ccc(Cl)c(OCCCN2CCOCC2)c1)c1cnc(SCc2c(F)cccc2Cl)n1-c1ccc(F)cc1`, the EC50 on human TGR5 (h-TGR5) and at h-TGR5 was 100 to 1000 nM in each case.

In the case of `COc1ccc(C(C)(C)c2cnc(SCc3c(F)cc(C(=O)O)cc3Cl)n2-c2ccc(F)cc2)cc1Cl` [3-chloro-4-({[5-{1-[3-chloro-4-(methyloxy)phenyl]-1-methylethyl}-1-(4-fluorophenyl)-1H-imidazol-2-yl]thio}methyl)-5-fluorobenzoic acid], the EC50 at human TGR5 (h-TGR5) and on h-TGR5 was less than 100 nM each time.

As for `COc1cc(C(C)(C)c2cnc(SCc3c(F)cc(C(C)(C)O)cc3Cl)n2-c2ccc(F)cc2)ccc1Cl` [2-[3-chloro-4-({[5-{1-[4-chloro-3-(methyloxy)phenyl]-1-methylethyl}-1-(4-fluorophenyl)-1H-imidazol-2-yl]thio}methyl)-5-fluorophenyl]propan-2-ol], the EC50 at human TGR5 (h-TGR5) and at h-TGR5 was less than 100 nM each time.

In the case of `COc1ccc(C(C)(C)c2cnc(SCc3ccc(S(N)(=O)=O)cc3Cl)n2-c2ccc(F)cc2)cc1Cl` [3-chloro-4-({[5-{1-[3-chloro-4-(methyloxy)phenyl]-1-methylethyl}-1-(4-fluorophenyl)-1H-imidazol-2-yl]thio}methyl)benzenesulfonamide], the half-maximal effective concentration (EC50) at human TGR5 (h-TGR5) and at h-TGR5 was less than 100 nM in each case.

With `CC(C)(c1ccc(Cl)c(Cl)c1)c1cnc(SCc2ccc(F)c(OCC(=O)O)c2)n1-c1ccc(F)cc1` [({5-[({5-[1-(3,4-dichlorophenyl)-1-methylethyl]-1-(4-fluorophenyl)-1H-imidazol-2-yl}thio)methyl]-2-fluorophenyl}oxy)acetic acid], the EC50 at human TGR5 (h-TGR5) and on h-TGR5 was 100 to 1000 nM each time.

As to `Cc1cc(-n2c(C(C)(C)c3ccc(Cl)c(Cl)c3)cnc2SCc2ccc(S(=O)(=O)NC(=O)NN3CCCC3)cc2Cl)ccc1F` [3-chloro-4-[({5-[l-(3,4-dichlorophenyl)-1-methylethyl]-1-(4-fluoro-3-methylphenyl)-1H-imidazol-2-yl}thio)methyl]-N-[(pyrrolidin-1-ylamino)carbonyl]benzenesulfonamide], the EC50 on human TGR5 (h-TGR5) and on h-TGR5 was 100 to 1000 nM each time.

As to `COc1cc(C(C)(C)c2cnc(SCc3c(F)cc(C(=O)NCCCC(=O)O)cc3Cl)n2-c2ccc(F)cc2)ccc1Cl` [4-({[3-chloro-4-({[5-{1-[4-chloro-3-(methyloxy)phenyl]-1-methylethyl}-1-(4-fluorophenyl)-1H-imidazol-2-yl]thio}methyl)-5-fluorophenyl]carbonyl}amino)butanoic acid], the EC50 at human TGR5 (h-TGR5) and on h-TGR5 was less than 100 nM each time.

As to `COc1cc(C(C)(C)c2cnc(SCc3c(F)cccc3Cl)n2-c2cccnc2)ccc1Cl` [3-(2-{[(2-chloro-6-fluorophenyl)methyl]thio}-5-{1-[4-chloro-3-(methyloxy)phenyl]-1-methylethyl}-1H-imidazol-1-yl)pyridine], the EC50 on human TGR5 (h-TGR5) and on h-TGR5 was 100 to 1000 nM in each case.

On to `COc1cc(C(C)(C)c2cnc(SCc3c(F)cc(S(N)(=O)=O)cc3F)n2-c2ccc(F)cc2)ccc1Cl` [4-({[5-{1-[4-chloro-3-(methyloxy)phenyl]-1-methylethyl}-1-(4-fluorophenyl)-1H-imidazol-2-yl]thio}methyl)-3,5-difluorobenzenesulfonamide], for which the EC50 on human TGR5 (h-TGR5) and on h-TGR5 was less than 100 nM throughout.

Consider `COc1cc(C(C)(C)c2cnc(SCc3ccnc(N)c3)n2-c2ccc(F)cc2)ccc1Cl` [4-({[5-{1-[4-chloro-3-(methyloxy)phenyl]-1-methylethyl}-1-(4-fluorophenyl)-1H-imidazol-2-yl]thio}methyl)pyridin-2-amine], for which the EC50 on human TGR5 (h-TGR5) and at h-TGR5 was 100 to 1000 nM in each case.

Consider `CC(C)(c1ccc(F)c(C#N)c1)c1cnc(SCc2c(F)cc(C(=O)O)cc2F)n1-c1ccc(F)cc1` [4-[({5-[1-(3-cyano-4-fluorophenyl)-1-methylethyl]-1-(4-fluorophenyl)-1H-imidazol-2-yl}thio)methyl]-3,5-difluorobenzoic acid], for which the EC50 at human TGR5 (h-TGR5) and on h-TGR5 was less than 100 nM throughout.

As to `COc1cc(C(C)(C)c2cnc(SCc3ccc(S(=O)(=O)NC(=O)NN4CCCC4)cc3Cl)n2-c2ccc(F)cc2)ccc1Cl` [3-chloro-4-({[5-{1-[4-chloro-3-(methyloxy)phenyl]-1-methylethyl}-1-(4-fluorophenyl)-1H-imidazol-2-yl]thio}methyl)-N-[(pyrrolidin-1-ylamino)carbonyl]benzenesulfonamide], the EC50 at human TGR5 (h-TGR5) and on h-TGR5 was 100 to 1000 nM each time.
